Earlier results, collected in patent US10526334B2, “Methods for preparing bis-tetrahydroisoquinoline-containing compounds” (California Institute of Technology, priority 2017, dated 2020).
pIC50: −log10 of the molar value. Like-named read-outs stand apart in the source and are kept apart here.

How the values were obtained:
[1] = not given; remark: listed apart in the source
[2] = read-out: IC50 (A549 lung cancer)

SMILES	pIC50 (A549 lung cancer; read-out: IC50 vs. A549 lung cancer)	pIC50 (DU145 prostate cancer)	pIC50 (HCT116 colon cancer)	pIC50 (A549 lung cancer; [2])	rodent in vivo half-life (rodent)	pIC50 (A375 melanoma)	in vivo half-life (t1/2) (in rodents)	t1/2 (rodent) (rodent)	t1/2 (human) ([1]; human)	in vivo half-life (t1/2) ([1]; in humans)
COC1=C(C)C(=O)C2=C(C1=O)[C@@H]1[C@@H]3CC4=C(C(=O)C(OC)=C(C)C4=O)[C@H](COC(C)=O)N3[C@@H](O)[C@H](C2)N1C [Jorumycin, jorumycin]	9.62	9.31	9.24							
COc1c(C)c(OC)c2c(c1O)[C@@H]1[C@@H]3Cc4c(OC)c(C)c(OC)c(O)c4[C@H](CNC(=O)c4ccc5ccccc5n4)N3[C@@H](C#N)[C@H](C2)N1C [QAD]				8.36	0.283 h	8.89				
COc1cc2c(cc1O)CCN[C@]21CS[C@@H]2c3c(OC(C)=O)c(C)c4c(c3[C@H](COC1=O)N1[C@@H]2[C@H]2c3c(cc(C)c(OC)c3O)C[C@@H]([C@@H]1O)N2C)OCO4 [Et 743, ecteinascidin 743]				9.00		9.82	20 h	20 h	96 to 180 h	96 to 180 h
